The text below walks through data of EP4748839A1 (CSPC Zhongqi Pharmaceutical Technology (Shijiazhuang) Co., …, priority 2023, dated 2025).

The structures appear in SMILES notation.

Broadly, the EC50 is the midpoint of the concentration-response curve. Read a high EC50 as weaker potency.

The target of the experiment is T1, GLP-1R (Homo sapiens, UniProt P43220).
T1 construct: expressed in transfected cells
The experiment in a line: GLP-1R agonistic effect in GLP1R-cAmp-Luc cells (luciferase reporter; titled 'Enzymatic assay'). It counts as cell-based. The settings on record: for EC50: 4 hours incubation, firefly luciferin signal; for EC50 of Positive reference / EC50 of Compound of the Present Application: Positive reference is PF-06882961. The method, then:
The GLP-1R agonistic effects of the test compounds were determined using GLP1R-cAmp-Luc cells. 1) The test compound was dissolved in DMSO and mixed well until the test compound was completely dissolved. The test compounds were dissolved in DMSO to prepare 10 mM stock solutions. All compounds were diluted with DMEM medium (high sugar, Puromycin^+, Hygromycin B^+) to an initial concentration of 1250 nM, and then subjected to 5-fold serial dilution to a total of 7 concentration gradients. The GLP1R-cAmp-Luc cells were seeded in white-wall 96-well cell culture plates at a density of 1×10^5/mL, with 90 µL cell suspension per well; the test compound at each of the 7 concentration gradients was added at 10 µL per well, with the actual initial working concentration of 125 nM; and the cells were placed in a 37 °C, 5% CO2 cell incubator for 4 hours; 2) 100 µL of luciferin potassium salt solution diluted to 300 µg/mL in PBS was added to each well at a working concentration of 150 µg/mL and incubated at room temperature for 30 minutes; 3) fluorescence signals of firefly luciferin were measured with a multifunctional microplate reader (PerkinElmer, Nivo); and the fluorescence values were processed using GraphPad Prism software to calculate EC50 values.

T1 sequence (P43220 24-463, species assumed): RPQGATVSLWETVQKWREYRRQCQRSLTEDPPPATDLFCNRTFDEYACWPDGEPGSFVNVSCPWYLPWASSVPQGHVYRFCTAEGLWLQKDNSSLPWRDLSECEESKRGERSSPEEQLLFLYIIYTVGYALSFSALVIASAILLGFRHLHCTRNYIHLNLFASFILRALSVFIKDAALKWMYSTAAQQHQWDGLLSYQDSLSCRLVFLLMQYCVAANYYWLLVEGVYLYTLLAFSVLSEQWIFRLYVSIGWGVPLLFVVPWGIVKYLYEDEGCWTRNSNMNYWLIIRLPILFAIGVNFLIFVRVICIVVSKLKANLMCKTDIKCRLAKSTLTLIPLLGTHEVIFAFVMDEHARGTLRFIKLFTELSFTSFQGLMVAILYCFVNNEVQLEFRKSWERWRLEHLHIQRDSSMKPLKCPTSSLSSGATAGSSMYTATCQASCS

For `COc1cc(C(=O)O)cc2c1nc(Cc1c(F)cc(-c3ccc(Cl)c(OCc4ccc(Cl)cc4F)n3)c3c1CCO3)n2C[C@@H]1CCO1` [Compound 108, (S)-2-((7-(5-chloro-6-((4-chloro-2-fluorobenzyl)oxy)pyridin-2-yl)-5-fluoro-2,3-dihydrobenzofuran-4-yl)methyl)-4-methoxy-1-(oxetan-2-ylmethyl)-1H-benzo[d]imidazole-6-carboxylic acid], the EC50 lay within 1 to 5 nM.

`COc1cc(C(=O)O)cc2c1nc(Cc1c(F)cc(-c3ccc(Br)c(OCc4ccc(Cl)cc4F)n3)c3c1CCO3)n2C[C@@H]1CCO1` [Compound 109, (S)-2-((7-(5-bromo-6-((4-chloro-2-fluorobenzyl)oxy)pyridin-2-yl)-5-fluoro-2,3-dihydrobenzofuran-4-yl)methyl)-4-methoxy-1-(oxetan-2-ylmethyl)-1H-benzo[d]imidazole-6-carboxylic acid]: the EC50 fell in the range of 1 to 5 nM.

With `COc1cc(C(F)(F)F)ccc1COc1nccc(-c2cc(F)c(Cc3nc4c(OC)cc(C(=O)O)cc4n3C[C@@H]3CCO3)c3c2OCC3)n1` [Compound 110, (S)-2-((7-(2-((2-methoxy-4-(trifluoromethyl)benzyl)oxy)pyrimidin-4-yl)-5-fluoro-2,3-dihydrobenzofuran-4-yl)methyl)-4-methoxy-1-(oxetan-2-ylmethyl)-1H-benzo[d]imidazole-6-carboxylic acid], the EC50 is not above 1 nM and the “EC50 of Positive reference / EC50 of Compound of the Present Application” value is reported as “Ratio ≥10”.

`CCn1cncc1Cn1c(Cc2c(F)cc(-c3cccc(OCc4ccc(Cl)cc4F)n3)c3c2CCO3)nc2c(OC)cc(C(=O)O)cc21` [Compound 111] gave an EC50 of 1 to 5 nM.

On to `COc1cc(C(=O)O)cc2c1nc(Cc1c(F)cc(-c3ccnc(OCc4ccc(Cl)cc4F)n3)c3c1CCO3)n2CC1(CF)CC1` [Compound 112, 2-((7-(2-((4-Chloro-2-fluorobenzyl)oxy)pyrimidin-4-yl)-5-fluoro-2,3-dihydrobenzofuran-4-yl)methyl)-1-((1-(fluoromethyl)cyclopropyl)methyl)-4-methoxy-1H-benzo[d]imidazole-6-carboxylic acid], for which the concentration for a half-maximal effect (EC50) is 1 to 5 nM.

Regarding `COc1cc(C(=O)O)cc2c1nc(Cc1c(F)cc(-c3ccnc(OCc4ccc(Cl)cc4OC(F)F)n3)c3c1CCO3)n2C[C@@H]1CCO1` [Compound 113, (S)-2-((7-(2-((2-difluoromethoxy-4-chlorobenzyl)oxy)pyrimidin-4-yl)-5-fluoro-2,3-dihydrobenzofuran-4-yl)methyl)-4-methoxy-1-(oxetan-2-ylmethyl)-1H-benzo[d]imidazole-6-carboxylic acid], the half-maximal effective concentration (EC50) was not above 1 nM and the “EC50 of Positive reference / EC50 of Compound of the Present Application” value is on record as “Ratio ≥10”.

Turning to `COc1cc(C(=O)O)cc2c1nc(Cc1c(F)cc(-c3ccc(F)c(OCc4ccc(Cl)cc4OC(F)F)n3)c3c1CCO3)n2C[C@@H]1CCO1` [Compound 114], the EC50 was not above 1 nM and the “EC50 of Positive reference / EC50 of Compound of the Present Application” value is “Ratio ≥10”.

With `COc1cc(C(=O)O)cc2c1nc(Cc1c(F)cc(-c3ccc(F)c(OCc4ccc(C#N)cc4F)n3)c3c1CCO3)n2C[C@@H]1CCO1` [Compound 115], the EC50 was not above 1 nM and the “EC50 of Positive reference / EC50 of Compound of the Present Application” value was “Ratio ≥10”.

Consider `COc1cc(C(F)(F)F)ccc1COc1nc(-c2cc(F)c(Cc3nc4c(OC)cc(C(=O)O)cc4n3C[C@@H]3CCO3)c3c2OCC3)ccc1F` [Compound 116, (S)-2-((7-(5-fluoro-6-((2-methoxy-4-(trifluoromethyl)benzyl)oxy)pyridin-2-yl)-5-fluoro-2,3-dihydrobenzofuran-4-yl)methyl)-4-methoxy-1-(oxetan-2-ylmethyl)-1H-benzo[d]imidazole-6-carboxylic acid], for which the EC50 is not above 1 nM and the “EC50 of Positive reference / EC50 of Compound of the Present Application” value was “Ratio ≥10”.

For the compound `COc1cc(C(=O)O)cc2c1nc(Cc1c(F)cc(-c3nccc(OCc4ccc(Cl)cc4F)n3)c3c1CCO3)n2C[C@@H]1CCO1` [Compound 117, (S)-2-((7-(4-((4-chloro-2-fluorobenzyl)oxy)pyrimidin-2-yl)-5-fluoro-2,3-dihydrobenzofuran-4-yl)methyl)-4-methoxy-1-(oxetan-2-ylmethyl)-1H-benzo[d]imidazole-6-carboxylic acid], the EC50 is not above 1 nM and the “EC50 of Positive reference / EC50 of Compound of the Present Application” value is recorded as “Ratio ≥10”.

Compound `CC(C)Oc1cc(C(=O)O)cc2c1nc(Cc1c(F)cc(-c3ccnc(OCc4ccc(Cl)cc4F)n3)c3c1CCO3)n2C[C@@H]1CCO1` [Compound 119, (S)-2-((7-(2-((4-chloro-2-fluorobenzyl)oxy)-pyrimidin-4-yl)-5-fluoro-2,3-dihydrobenzofuran-4-yl)methyl)-4-isopropoxy-1-(oxetan-2-ylmethyl)-1H-benzo[d]imidazole-6-carboxylic acid] gave an EC50 of 1 to 5 nM.

As to `COc1cc(C(=O)O)cc2c1nc(Cc1c(F)cc(-c3ccnc(OCc4ccc(C5COC5)cc4F)n3)c3c1CCO3)n2C[C@@H]1CCO1` [Compound 120, (S)-2-((7-(2-((2-fluoro-4-(oxetan-3-yl)benzyl)oxy)pyrimidin-4-yl)-5-fluoro-2,3-dihydrobenzofuran-4-yl)methyl)-4-methoxy-1-(oxetan-2-ylmethyl)-1H-benzo[d]imidazole-6-carboxylic acid], the EC50 is not above 1 nM and the “EC50 of Positive reference / EC50 of Compound of the Present Application” value is given as “Ratio ≥10”.

Take `CCOc1cc(C(=O)O)cc2c1nc(Cc1c(F)cc(-c3ccnc(OCc4ccc(Cl)cc4F)n3)c3c1CCO3)n2C[C@@H]1CCO1` [Compound 121, (S)-2-((7-(2-((4-chloro-2-fluorobenzyl)oxy)pyrimidin-4-yl)-5-fluoro-2,3-dihydrobenzofuran-4-yl)methyl)-4-ethoxy-1-(oxetan-2-ylmethyl)-1H-benzo[d]imidazole-6-carboxylic acid]: the EC50 was not above 1 nM and the “EC50 of Positive reference / EC50 of Compound of the Present Application” value is on record as “Ratio ≥10”.

Consider `CCOc1cc(C(=O)O)cc2c1nc(Cc1c(F)cc(-c3ccc(F)c(OCc4ccc(Cl)cc4F)n3)c3c1CCO3)n2C[C@@H]1CCO1` [Compound 122, (S)-2-((7-(6-((4-chloro-2-fluorobenzyl)oxy)-5-fluoropyridin-2-yl)-5-fluoro-2,3-dihydrobenzofuran-4-yl)methyl)-4-ethoxy-1-(oxetan-2-ylmethyl)-1H-benzo[d]imidazole-6-carboxylic acid], for which the EC50 lay in the range of 1 to 5 nM and the “EC50 of Positive reference / EC50 of Compound of the Present Application” value is given as “Ratio ≥10”.

Take `O=C(O)c1ccc2nc(Cc3c(F)cc(-c4ccnc(OCc5ccc(Cl)cc5F)n4)c4c3CCO4)n(C[C@@H]3CCO3)c2c1` [Compound 124, (S)-2-((7-(2-((4-chloro-2-fluorobenzyl)oxy)pyrimidin-4-yl)-5-fluoro-2,3-dihydrobenzofuran-4-yl)methyl)-1-(oxetan-2-ylmethyl)-1H-benzo[d]imidazole-6-carboxylic acid]: the EC50 is not above 1 nM.

Turning to `COc1cc(C(F)(F)F)ccc1COc1ccnc(-c2cc(F)c(Cc3nc4c(OC)cc(C(=O)O)cc4n3C[C@@H]3CCO3)c3c2OCC3)n1` [Compound 125, (S)-2-((7-(4-((2-methoxy-4-(trifluoromethyl)benzyl)oxy)pyrimidin-2-yl)-5-fluoro-2,3-dihydrobenzofuran-4-yl)methyl)-4-methoxy-1-(oxetan-2-ylmethyl)-1H-benzo[d]imidazole-6-carboxylic acid], the EC50 was not above 1 nM and the “EC50 of Positive reference / EC50 of Compound of the Present Application” value is “Ratio ≥10”.

As for `COc1cc(C(=O)O)cc2c1nc(Cc1c(F)cc(-c3ccc(F)c(OCc4ccc(C5COC5)cc4F)n3)c3c1CCO3)n2C[C@@H]1CCO1` [Compound 126, (S)-2-((7-(5-fluoro-6-((2-fluoro-4-(oxetan-3-yl)benzyl)oxy)pyridin-2-yl)-5-fluoro-2,3-dihydrobenzofuran-4-yl)methyl)-4-methoxy-1-(oxetan-2-ylmethyl)-1H-benzo[d]imidazole-6-carboxylic acid], the EC50 is not above 1 nM and the “EC50 of Positive reference / EC50 of Compound of the Present Application” value was “Ratio ≥10”.

Compound `COc1cc(C(=O)O)cc2c1nc(Cc1c(F)cc(-c3nccc(OCc4ccc(C5COC5)cc4F)n3)c3c1CCO3)n2C[C@@H]1CCO1` [Compound 127, (S)-2-((7-(4-((2-fluoro-4-(oxetan-3-yl)benzyl)oxy)pyrimidin-2-yl)-5-fluoro-2,3-dihydrobenzofuran-4-yl)methyl)-4-methoxy-1-(oxetan-2-ylmethyl)-1H-benzo[d]imidazole-6-carboxylic acid] displayed an EC50 of 1 to 5 nM.

For `COc1cc(C(=O)O)cc2c1nc(Cc1c(F)cc(-c3nc(OCc4ccc(C5COC5)cc4F)ncc3F)c3c1CCO3)n2C[C@@H]1CCO1` [Compound 128, (S)-2-((7-(5-fluoro-2-((2-fluoro-4-(oxetan-3-yl)benzyl)oxy)pyrimidin-4-yl)-5-fluoro-2,3-dihydrobenzofuran-4-yl)methyl)-4-methoxy-1-(oxetan-2-ylmethyl)-1H-benzo[d]imidazole-6-carboxylic acid], the EC50 is not above 1 nM and the “EC50 of Positive reference / EC50 of Compound of the Present Application” value is recorded as “Ratio ≥10”.

As for `COc1cc(C(=O)O)cc2c1nc(Cc1c(F)cc(-c3ncc(F)c(OCc4ccc(C5COC5)cc4F)n3)c3c1CCO3)n2C[C@@H]1CCO1` [Compound 129, (S)-2-((7-(5-fluoro-4-((2-fluoro-4-(oxetan-3-yl)benzyl)oxy)pyrimidin-2-yl)-5-fluoro-2,3-dihydrobenzofuran-4-yl)methyl)-4-methoxy-1-(oxetan-2-ylmethyl)-1H-benzo[d]imidazole-6-carboxylic acid], the EC50 is not above 1 nM.
